In brackets after ≈: the same amount, converted by molar mass.
System: Staphylococcus aureus NCTC 13373 (mecA-positive; methicillin-resistant)
Experiment: In vitro antibacterial activity, MIC (UCL School of Pharmacy assay), MRSA
Assay type: cell-based
Details: Staphylococcus aureus, UCL; read-out: MRSA MIC (UCL)
Method: (§1) Staphylococcus aureus NCTC 13373 (mecA-positive; methicillin-resistant, NCTC 13373) was supplied by the National Collection of Type Cultures (NCTC), Public Health England, United Kingdom. Other organisms, S. aureus ATCC 25923 (methicillin-susceptible) and Enterococcus faecalis ATCC 51299 (vanA-positive; vancomycin-resistant), were obtained from the American Type Culture Collection (ATCC) via LGC Standards, UK. A suspension of each organism was prepared from an overnight plate culture (tryptone soya agar) in phosphate-buffered saline (PBS) and adjusted to an absorbance reading at 600 nm of 0.1, which is approximately equivalent to 1 × 10^8 colony-forming units (CFU) per mL. The cultures were further diluted 1:100 in isosensitest broth (Oxoid, United Kingdom) before 100 μL was used to inoculate each well of a 96-well plate that contained diluted samples of the OSA series. Compounds were evaluated over a 2-fold dilution range from 32 to 0.03 μg/mL. Stocks of the samples were prepared in 100% DMSO at […] before being diluted in isosenstitest broth. The highest concentration of DMSO present was 2%, which has been previously shown not to inhibit the growth of the microorganisms (data not shown). […] Vancomycin was used as a quality control compound.

MIC [µg/mL] | SMILES
> 32 | Cc1ccc(C(=O)Nc2c(-c3ccccn3)nc3ccccn23)cc1 [OSA_001017]

Same assay, conditions: Staphylococcus aureus; UCL assay; read-out: MRSA MIC (ug/mL) (UCL)

MIC [µg/mL] | SMILES
8 (≈ 20.5 µM) | COc1ccc(-c2nc3ccccn3c2N(CC(C)C)c2ccc(F)cc2)nc1 [OSA_001034]
> 32 | CC(C)CN(c1ccc(F)cc1)c1c(-c2ccccn2)nc2cnccn12 [OSA_001035]
32 (≈ 88.5 µM) | CC(C)CN(c1ccc(F)cc1)c1c(-c2ccccn2)nc2cccnn12 [OSA_001036]
> 32 | CC(C)CN(c1ccc(F)cc1)c1c(-c2ccccn2)nc2ccc(S(C)(=O)=O)cn12 [OSA_001037]
> 32 | CC(C)CN(c1ccc(F)cc1)c1c(-c2ccccn2)nc2ccncn12 [OSA_001039]
32 (≈ 85.5 µM) | CC(C)CN(Cc1c(-c2ccccn2)nc2ccccn12)c1ccc(F)cc1 [OSA_001040]
> 32 | N#Cc1ccc(-c2nc(-c3ccccn3)c[nH]2)cc1 [OSA_001102]
> 32 | N#Cc1ccc(-c2c(-c3ccccn3)nc3cccnn23)cc1 [OSA_001103]
> 32 | N#Cc1ccc(-c2c(-c3ccccn3)nc3ccccn23)cc1 [OSA_001104]
> 32 | N#Cc1ccc(-c2c(-c3ccccn3)nc3ncccn23)cc1 [OSA_001105]
> 32 | N#Cc1ccc(-c2c(-c3ccccn3)nc3cnccn23)cc1 [OSA_001106]
> 32 | N#Cc1ccc(-c2c(-c3ncccn3)nc3ccccn23)cc1 [OSA_001107]

Same assay, conditions: Staphylococcus aureus; read-out: MRSA MIC

MIC [µg/mL] | SMILES
32 (≈ 101 µM) | c1ccc(-c2nc3ccccn3c2-c2ccc3c(c2)OCO3)nc1 [compound 814]
16 (≈ 50.1 µM) | c1ccc(-c2nc3n(c2-c2ccc4c(c2)OCCO4)CCC3)nc1 [compound 819]
16 (≈ 54.9 µM) | COc1ccc(-c2c(-c3ccccn3)nc3n2CCC3)cc1 [compound 823]
4 (≈ 13 µM) | CSc1ccc(-c2c(-c3ccccn3)nc3n2CCC3)cc1 [compound 824]
16 (≈ 54.9 µM) | COc1cccc(-c2c(-c3ccccn3)nc3n2CCC3)c1 [compound 825]
4 (≈ 13 µM) | CSc1cccc(-c2c(-c3ccccn3)nc3n2CCC3)c1 [compound 826]
4 (≈ 13.3 µM) | c1ccc(-c2nc3n(c2-c2ccc4ccoc4c2)CCC3)nc1 [compound 829]
4 (≈ 12.6 µM) | c1ccc(-c2nc3n(c2-c2ccc4ccsc4c2)CCC3)nc1 [compound 830]
8 (≈ 21.8 µM) | c1ccc(-c2nc3n(c2-c2ccc4sc5ccccc5c4c2)CCC3)nc1 [compound 831]
8 (≈ 25.2 µM) | c1ccc(-c2nc3n(c2-c2csc4ccccc24)CCC3)nc1 [compound 832]
16 (≈ 49.8 µM) | [2H]C([2H])([2H])N(c1ccc(F)cc1)c1c(-c2ccccn2)nc2ccccn12 [compound 1002]
16 (≈ 40.3 µM) | CN(c1ccc(F)cc1)c1c(-c2ccccn2)nc2ccc(Br)cn12 [compound 1003]
8 (≈ 22 µM) | CSc1ccc2nc(-c3ccccn3)c(N(C)c3ccc(F)cc3)n2c1 [compound 1004]
32 (≈ 95.1 µM) | CN(c1ccc(F)cc1)c1c(-c2ccccn2)nc2cccc(F)n12 [compound 1005]
> 32 | Fc1ccc(Nc2c(-c3nccs3)nc3ccccn23)cc1 [compound 1008]
> 32 | Fc1ccc(Nc2c(-c3ccc[nH]3)nc3ccccn23)cc1 [compound 1009]
4 (≈ 11.7 µM) | CCN(CC)c1ccc(-c2c(-c3ccccn3)nc3ccccn23)cc1 [compound 1011]
> 32 | CN1CCN(c2ccc(-c3c(-c4ccccn4)nc4ccccn34)cc2)CC1 [compound 1012]
> 32 | N#Cc1ccc(C(=O)Nc2c(-c3ccccn3)nc3ccccn23)cc1 [compound 1016]
> 32 | Cc1ccc(C(=O)Nc2c(-c3ccccn3)nc3ccccn23)cc1 [compound 1017]
8 (≈ 23.9 µM) | COc1ccc(-c2nc3ccccn3c2Nc2ccc(F)cc2)nc1 [compound 1022]

System: S. aureus ATCC 25923 (methicillin-susceptible)
Experiment: In vitro antibacterial activity, MIC (UCL), MSSA
Assay type: cell-based, Staphylococcus aureus
Details: Staphylococcus aureus; UCL assay; read-out: MSSA MIC (ug/mL) (UCL)
Method: as §1

MIC [µg/mL] | SMILES
> 32 | CC(C)CN(c1ccc(F)cc1)c1c(-c2ccccn2)nc2cnccn12 [OSA_001035]
32 (≈ 88.5 µM) | CC(C)CN(c1ccc(F)cc1)c1c(-c2ccccn2)nc2cccnn12 [OSA_001036]
> 32 | CC(C)CN(c1ccc(F)cc1)c1c(-c2ccccn2)nc2ccc(S(C)(=O)=O)cn12 [OSA_001037]
8 (≈ 22.1 µM) | CC(C)CN(c1ccc(F)cc1)c1c(-c2ccccn2)nc2ncccn12 [OSA_001038]
> 32 | CC(C)CN(c1ccc(F)cc1)c1c(-c2ccccn2)nc2ccncn12 [OSA_001039]
> 32 | CC(C)CN(Cc1c(-c2ccccn2)nc2ccccn12)c1ccc(F)cc1 [OSA_001040]
> 32 | N#Cc1ccc(-c2nc(-c3ccccn3)c[nH]2)cc1 [OSA_001102]
> 32 | N#Cc1ccc(-c2c(-c3ccccn3)nc3cccnn23)cc1 [OSA_001103]
> 32 | N#Cc1ccc(-c2c(-c3ccccn3)nc3ccccn23)cc1 [OSA_001104]
> 32 | N#Cc1ccc(-c2c(-c3ccccn3)nc3ncccn23)cc1 [OSA_001105]
> 32 | N#Cc1ccc(-c2c(-c3ccccn3)nc3cnccn23)cc1 [OSA_001106]
> 32 | N#Cc1ccc(-c2c(-c3ncccn3)nc3ccccn23)cc1 [OSA_001107]

Same assay, conditions: Staphylococcus aureus; read-out: MSSA MIC

MIC [µg/mL] | SMILES
16 (≈ 49.8 µM) | [2H]C([2H])([2H])N(c1ccc(F)cc1)c1c(-c2ccccn2)nc2ccccn12 [compound 1002]
16 (≈ 40.3 µM) | CN(c1ccc(F)cc1)c1c(-c2ccccn2)nc2ccc(Br)cn12 [compound 1003]
8 (≈ 22 µM) | CSc1ccc2nc(-c3ccccn3)c(N(C)c3ccc(F)cc3)n2c1 [compound 1004]
32 (≈ 95.1 µM) | CN(c1ccc(F)cc1)c1c(-c2ccccn2)nc2cccc(F)n12 [compound 1005]
> 32 | Fc1ccc(Nc2c(-c3nccs3)nc3ccccn23)cc1 [compound 1008]
> 32 | Fc1ccc(Nc2c(-c3ccc[nH]3)nc3ccccn23)cc1 [compound 1009]
4 (≈ 11.7 µM) | CCN(CC)c1ccc(-c2c(-c3ccccn3)nc3ccccn23)cc1 [compound 1011]
> 32 | CN1CCN(c2ccc(-c3c(-c4ccccn4)nc4ccccn34)cc2)CC1 [compound 1012]
> 32 | N#Cc1ccc(C(=O)Nc2c(-c3ccccn3)nc3ccccn23)cc1 [compound 1016]
> 32 | Cc1ccc(C(=O)Nc2c(-c3ccccn3)nc3ccccn23)cc1 [compound 1017]
8 (≈ 23.9 µM) | COc1ccc(-c2nc3ccccn3c2Nc2ccc(F)cc2)nc1 [compound 1022]

Same assay, conditions: Staphylococcus aureus; read-out: MSSA MIC (UCL)

MIC [µg/mL] | SMILES
> 32 | Cc1ccc(C(=O)Nc2c(-c3ccccn3)nc3ccccn23)cc1 [OSA_001017]

— PMC10714399, “Open Source Antibiotics: Simple Diarylimidazoles Are Potent against Methicillin-Resistant Staphylococcus aureus” (ACS Infectious Diseases, 2023)
